Data set [1] deals with Human immunodeficiency virus type 1 protease (Human immunodeficiency virus 1, UniProt Q72874). Put plainly: Inhibition of HIV-1 protease expressed in Escherichia coli using Arg-Glu(EDANS)-Ser-Gln-Asn-Tyr-Pro-Ile-Val-Gln-Lys(DABCYL)-Arg peptide as substrate preincubated for 20 to 30 mins followed by substrate addition and measured for 10 mins by FRET assay.
In data set [2] the test system is Human immunodeficiency virus 1. The experiment in a line: Antiviral activity against wild type VSV-G pseudotyped HIV-1 NL4-3 infected in human HEK293T cells assessed as inhibition of viral replication by measuring luciferase activity incubated for 48 hrs further infected with human SupT1 cells for 48 hrs by luciferase based analysis. It is filed as functional, organism-based. The following applies: Human immunodeficiency virus 1, NL4-3, HEK-293T.

The test system of data set [3] is Human immunodeficiency virus 1. The experiment in a line: Antiviral activity against drug-resistant VSV-G pseudotyped HIV-1 NL4-3 harboring protease V32I/L33F/I54M/I84V mutant infected in human HEK293T cells assessed as inhibition of viral replication by measuring luciferase activity incubated for 48 hrs further infected with human SupT1 cells for 48 hrs by luciferase based analysis. Format: functional, organism-based. Particulars: Human immunodeficiency virus 1, NL4-3, HEK-293T.

Data set [4] in a line: Cytotoxicity against human HEK293T cells assessed as reduction in cell viability incubated for 24 hrs by CCK-8 assay. Format: toxicity, cell-based, HEK-293T.

The record followed here is ChEMBL document CHEMBL5321230, “Design, synthesis, and biological evaluation of novel HIV-1 protease inhibitors containing pyrrolidine-derived P2 ligands to combat drug-resistant variant” (Eur J Med Chem, 2023).

Compound `COc1ccc(S(=O)(=O)N(CC(C)C)C[C@@H](O)[C@H](Cc2ccccc2)NC(=O)C[C@@H]2CCNC2)cc1` registered a concentration for half-maximal inhibition (IC50) in data set [1] of 20.5 µM. The same measure, in the same setting: to `CC(C)CN(C[C@@H](O)[C@H](Cc1ccccc1)NC(=O)[C@@H]1CCCN1)S(=O)(=O)c1ccc(O)cc1` belongs 0.97 µM.

In data set [1], `COc1ccc(S(=O)(=O)N(CC(C)C)C[C@@H](O)[C@H](Cc2ccccc2)NC(=O)[C@@H]2CCNC2)cc1` yielded an IC50 of 0.41 µM. Further, the concentration giving a half-maximal response (EC50) came out at 1350 nM in data set [2] and 2.51 µM in data set [3]. In addition, the CC50 at 24 h in data set [4] was more than 200 µM. Take `CC(C)CN(C[C@@H](O)[C@H](Cc1ccccc1)NC(=O)[C@@H]1CCNC1)S(=O)(=O)c1ccc(N)cc1`: the half-inhibitory concentration (IC50) in data set [1] amounted to 6.16 µM.

With `CC(C)CN(C[C@@H](O)[C@H](Cc1ccccc1)NC(=O)[C@H]1CCNC1)S(=O)(=O)c1ccc(N)cc1`, the IC50 in data set [1] was 12.5 µM. As for `CC(C)CN(C[C@@H](O)[C@H](Cc1ccccc1)NC(=O)[C@H]1CCNC1)S(=O)(=O)c1ccc(O)cc1`, the IC50 in data set [1] was found to be 0.51 µM. Also, the EC50 in data set [2] stood at 1570 nM; in data set [3] it was 13.3 µM. The CC50 at 24 h in data set [4] was more than 200 µM. Consider `CC(C)CN(C[C@@H](O)[C@H](Cc1ccccc1)NC(=O)O[C@H]1CCNC1)S(=O)(=O)c1ccc(NO)cc1`, for which, in data set [1], the 50% inhibitory concentration (IC50) amounted to 5.1 µM. The same measure, in the same setting: to `CC(C)CN(C[C@@H](O)[C@H](Cc1ccccc1)NC(=O)C[C@@H]1CCNC1)S(=O)(=O)c1ccc(O)cc1` belongs 5.01 µM; to `CC(C)CN(C[C@@H](O)[C@H](Cc1ccccc1)NC(=O)C[C@H]1CCNC1)S(=O)(=O)c1ccc(O)cc1`, 1.43 µM; to `COc1ccc(S(=O)(=O)N(CC(C)C)C[C@@H](O)[C@H](Cc2ccccc2)NC(=O)N[C@@H]2CCNC2)cc1`, 20.7 µM.

Turning to `COc1ccc(S(=O)(=O)N(CC(C)C)C[C@@H](O)[C@H](Cc2ccccc2)NC(=O)O[C@@H]2CCNC2)cn1`, the IC50 in data set [1] was 23 µM. `COc1ccc(S(=O)(=O)N(CC(C)C)C[C@@H](O)[C@H](Cc2ccccc2)NC(=O)O[C@H]2CCNC2)cn1`: in data set [1], the half-maximal inhibitory concentration (IC50) is 4.04 µM. Still for that read-out and setting: to `COc1ccc(S(=O)(=O)N(CC(C)C)C[C@@H](O)[C@H](Cc2ccccc2)NC(=O)C[C@H]2CCNC2)cc1` belongs 2.77 µM. `CC(C)CN(C[C@@H](O)[C@H](Cc1ccccc1)NC(=O)O[C@H]1CCNC1)S(=O)(=O)c1ccc(N)cc1`: 5.06 µM corresponded to half-maximal inhibition in data set [1] (IC50). Still for that read-out and setting: to `CC(C)CN(C[C@@H](O)[C@H](Cc1ccccc1)NC(=O)[C@@H]1CCNC1)S(=O)(=O)c1ccc(NO)cc1` belongs 1.21 µM. As to `CC(C)CN(C[C@@H](O)[C@H](Cc1ccccc1)NC(=O)[C@@H]1CCNC1)S(=O)(=O)c1ccc(O)cc1`, 0.32 µM corresponded to half-maximal inhibition in data set [1] (IC50). Besides, the values for the EC50 in data set [2] and in data set [3] were 290 nM and 1.9 µM, respectively. The cytotoxic concentration (CC50) at 24 h in data set [4] is more than 200 µM. As for `CC(C)CN(C[C@@H](O)[C@H](Cc1ccccc1)NC(=O)O[C@@H]1CCNC1)S(=O)(=O)c1ccc(N)cc1`, in data set [1], the IC50 amounted to 25.4 µM. In data set [1], `COc1ccc(S(=O)(=O)N(CC(C)C)C[C@@H](O)[C@H](Cc2ccccc2)NC(=O)O[C@@H]2CCNC2)cc1` displayed an IC50 of 2.58 µM. Consider `CC(C)CN(C[C@@H](O)[C@H](Cc1ccccc1)NC(=O)O[C@H]1CCNC1)S(=O)(=O)c1ccc(O)cc1`, for which, in data set [1], the IC50 was 0.72 µM. Besides, the EC50 came out at 410 nM in data set [2] and 8.14 µM in data set [3]. For the same compound, in data set [4], the half-maximal cytotoxic concentration (CC50) at 24 h is more than 200 µM.

`COc1ccc(S(=O)(=O)N(CC(C)C)C[C@@H](O)[C@H](Cc2ccccc2)NC(=O)N[C@H]2CCNC2)cc1` yielded a half-maximal inhibitory concentration (IC50) in data set [1] of 4.01 µM.

On to `CC(C)CN(C[C@@H](O)[C@H](Cc1ccccc1)NC(=O)N[C@@H]1CCNC1)S(=O)(=O)c1ccc(O)cc1`, for which the IC50 in data set [1] is 5.97 µM. On to `CC(C)CN(C[C@@H](O)[C@H](Cc1ccccc1)NC(=O)[C@H]1CCCN1)S(=O)(=O)c1ccc(O)cc1`, for which, in data set [1], the IC50 worked out at 96.9 µM. `CC(C)CN(C[C@@H](O)[C@H](Cc1ccccc1)NC(=O)N[C@H]1CCNC1)S(=O)(=O)c1ccc(O)cc1`: the IC50 in data set [1] amounted to 1.95 µM.

With `CC(C)CN(C[C@@H](O)[C@H](Cc1ccccc1)NC(=O)O[C@@H]1CCNC1)S(=O)(=O)c1ccc(O)cc1`, the IC50 in data set [1] came out at 0.82 µM. For the same compound, the EC50 in data set [2] came to 750 nM; in data set [3] it was 9.26 µM. In data set [4], the half-maximal cytotoxic concentration (CC50) at 24 h is more than 200 µM. Regarding `COc1ccc(S(=O)(=O)N(CC(C)C)C[C@@H](O)[C@H](Cc2ccccc2)NC(=O)[C@H]2CCNC2)cn1`, in data set [1], half-maximal inhibition (IC50) required 4.74 µM. Same read-out and setting: to `COc1ccc(S(=O)(=O)N(CC(C)C)C[C@@H](O)[C@H](Cc2ccccc2)NC(=O)[C@@H]2CCCN2)cc1` belongs 2.19 µM; to `COc1ccc(S(=O)(=O)N(CC(C)C)C[C@@H](O)[C@H](Cc2ccccc2)NC(=O)[C@@H]2CCNC2)cn1`, 0.83 µM; to `COc1ccc(S(=O)(=O)N(CC(C)C)C[C@@H](O)[C@H](Cc2ccccc2)NC(=O)[C@H]2CCCN2)cc1`, 39.8 µM. The same measure, in the same setting: to `COc1ccc(S(=O)(=O)N(CC(C)C)C[C@@H](O)[C@H](Cc2ccccc2)NC(=O)[C@H]2CCNC2)cc1` belongs 0.6 µM; to `CC(C)CN(C[C@@H](O)[C@H](Cc1ccccc1)NC(=O)O[C@@H]1CCNC1)S(=O)(=O)c1ccc(NO)cc1`, 27.4 µM. The same measure, in the same setting: the result for `COc1ccc(S(=O)(=O)N(CC(C)C)C[C@@H](O)[C@H](Cc2ccccc2)NC(=O)O[C@H]2CCNC2)cc1` reads 1.1 µM.

In data set [1], `CC(C)CN(C[C@@H](O)[C@H](Cc1ccccc1)NC(=O)[C@H]1CCNC1)S(=O)(=O)c1ccc(NO)cc1` yielded an IC50 of 10.9 µM.

As to `CC(C)CN(C[C@@H](O)[C@H](Cc1ccccc1)NC(=O)O[C@H]1CCOC1)S(=O)(=O)c1ccc(N)cc1`, the EC50 in data set [2] worked out at 260 nM; in data set [3] it was 3.93 µM. Also, in data set [4], the cytotoxic concentration (CC50) at 24 h is more than 200 µM.

What is called IC50 is the concentration that inhibits the measured activity by half. Lower therefore signals greater potency in that assay. As usually defined, the EC50 is the concentration needed to bring the measured effect to its halfway point. Usually CC50 stands for the concentration that lowers cell viability or growth by half.
